Entries after “also recorded” stand apart in the source; their conditions may differ.
What was measured:
Assay type in all cases: cell-based
MCF-7 bus cells [1] = assay: E-screen assay with co-treatment of tamoxifen (estrogen receptor antagonist); conditions: tamoxifen 10^−6M; FIGS. 5A and 5B
Method: (§1) In detail, MCF-7-bus cells were cultured in a 5% FBS DMEM medium and seeded in a 48-well plate at a density of 5×10^3 cells/well. The cells were cultured in a CO2 incubator at 37° C. for 48 hours, and then washed with a phenol red-free medium twice. The test materials were diluted with 5% CD-FBS DMEM at different concentrations, and then cells were treated therewith. The concentration of the solvent was in principle adjusted to 0.1%. After culturing for 144 hours (6 days), cells were fixed to the plate with TCA (Trichloroacetic acid) solution. The cells thus fixed were stained with SRB (Sulforhodamin B) dye, and the SRB dye remaining in the plate was removed by washing with acetic acid. The bound SRB dye was eluted from the cells with tris-base solution, and absorbance at 490 nm was measured to calculate the amount of SRB dye. Finally, estrogenic actions of the test materials were confirmed.
In detail, Tamoxifen is a representative estrogen receptor antagonist, and in this experiment, in order to examine whether the test materials show the estrogen receptor-mediated estrogenic actions, the test materials were mixed with tamoxifen (10^−6M) and MCF-7 bus cells were treated with the mixture to perform e-screen assay, and the results are shown in FIG. 5.

MCF-7-bus cells = assay: E-screen assay for estrogenic activity; conditions: isolated compounds; FIGS. 4A and 4B
Excerpt: E-screen assay is a method of measuring estrogenic action of a substance, i.e., a method of utilizing the growth effect of MCF-7-bus, a breast cancer cell line with endogenous estrogen receptors (ER) expressed therein, which is stimulated by an estrogenic substance. In the present invention, estrogenic activities of the methanol extract and the organic solvent fraction thereof, the ethanol extract and the column fraction thereof were examined by E-screen assay.
as §1

MCF-7 bus cells [2] = assay: E-screen assay with co-treatment of high or low concentration of estradiol (SERM function); conditions: for change in estrogenic activity by co-treatment of high concentration of estrogen: estradiol 10^−7M, FIGS. 6A and 6B; for change in estrogenic activity by co-treatment of low concentration of estrogen: estradiol 10^−13M, FIGS. 7A and 7B
Method: as §1
In detail, to examine whether the test materials function as an antagonist of estrogen at excessively high level of estrogen in the body, the test materials were mixed with high concentration of estradiol (10^−7M) and MCF-7 bus cells were treated with the mixture. To examine whether the test materials function as an agonist of estrogen at estrogen deficiency in the body, the test materials were mixed with a low concentration of estradiol (10^−13M) and MCF-7 bus cells were treated with the mixture. Then, e-screen assay was performed.

RBL-2H3 cell line = assay: β-Hexosaminidase release assay for anti-allergic activity; conditions: Rattus norvegicus, 50 μg/ml, Mean ± SD, read-out: Degranulation-inhibitory activity (%, Mean ± SD)
Method: β-Hexosaminidase release assay is an experiment for examining anti-allergic activity by activating the RBL-2H3 cell line with an activating factor, treating the activated cells with an antigen, and then measuring the amount of released β-hexosaminidase to examine inhibitory effect on degranulation, and this assay was performed as follows.
In detail, the RBL-2H3 cell line was cultured in minimum essential media (hereinafter, referred to as EMEM) containing Eagle's salt supplemented with 15% fetal bovine serum and L-glutamine at 37° C. in a 5% CO2 incubator. Adherent cells were suspended by Trypsin-EDTA, and separated, recovered for use in the experiment. The RBL-2H3 cell line was activated with an activating factor (Dinitrophenol-conjugated human serum albumin, (DNP-HSA)-specific IgE), and then the activated cells were treated with 200 ng/mL of an antigen (DNP-HSA), and 0, 6.25, 12.5, 25, 50, or 100 μg/mL of the fraction of the extract of Cyperus rotundus was treated, respectively. Cells were incubated for 30 minutes. As a positive control, 50 μg/mL of ketotifen was used. Thereafter, the amount of β-hexosaminidase released to the medium was measured using a microplate spectrophotometer. Inhibition of β-hexosaminidase release means prevention of degranulation of immune cells.

Compound	estrogenic activity by co-treatment with tamoxifen (MCF-7 bus cells [1])	estrogenic activity (MCF-7-bus cells)	change in estrogenic activity by co-treatment of high concentration of estrogen (MCF-7 bus cells [2])	change in estrogenic activity by co-treatment of low concentration of estrogen (MCF-7 bus cells [2])	inhibition at 50 µg/mL (RBL-2H3 cell line) [%]
C=C(C)[C@@H]1CC[C@@]2(C)CCC(=O)[C@@]3(C)O[C@@]23C1 [Compound [1], 4α,5α-oxidoeudesm-11-en-3-one]	remarkably reduced activities	excellent estrogenic activity; also recorded: high estrogenic activity	function as an estrogen inhibitor	function as an estrogen supplement	
CN1CCC(=C2c3ccccc3CC(=O)c3sccc32)CC1 [Ketotifen, ketotifen, reference compound]					50.5 ± 2.28
cyper-11-ene-3,4-dione [Compound [2]]	remarkably reduced activities	high estrogenic activity	function as an estrogen inhibitor	function as an estrogen supplement	
C=C(C)C1CCC2(C)CCC(OC)C(C)=C2C1 (stereo not drawn) [Compound [6], 3α-methoxyeudesma-4,11-diene]	remarkably reduced activities	high estrogenic activity	function as an estrogen inhibitor	function as an estrogen supplement	41.7 ± 5.4

Source: patent publication US9795649B2, “Sesquiterpenoid-based compounds, extracts of Cyperus rotundus comprising the same, and use thereof” (RESEARCH & BUSINESS FOUNDATION SUNGKYUNKWAN UNIVERSITY, priority 2013, dated 2017)
